Where a name gives a salt, the structure may show the parent alone.

The values that follow come from US6951848B2, “Functionalized heterocycles as modulators of chemokine receptor function and methods of use therefor” (Millennium Pharmaceuticals, Inc.,, priority 2001, dated 2005).

T1 sequence (P51681 whole entry): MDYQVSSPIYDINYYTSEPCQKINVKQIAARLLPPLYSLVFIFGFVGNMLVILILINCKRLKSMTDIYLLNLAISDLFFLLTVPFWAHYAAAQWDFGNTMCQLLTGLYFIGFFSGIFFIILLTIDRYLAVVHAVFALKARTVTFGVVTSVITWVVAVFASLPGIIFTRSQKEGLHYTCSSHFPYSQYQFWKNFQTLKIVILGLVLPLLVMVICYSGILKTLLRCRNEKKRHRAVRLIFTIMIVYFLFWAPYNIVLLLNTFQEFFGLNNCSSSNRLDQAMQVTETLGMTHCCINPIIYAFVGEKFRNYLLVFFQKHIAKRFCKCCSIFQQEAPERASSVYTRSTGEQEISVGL

One series has as its target T1, CCR-5 (Homo sapiens, UniProt P51681).
T1 construct: expressed in transfected cells; host or cells: L1.2 cells (CCR-5/L1.2 transfectants), membranes
Put plainly: 125I-gp120/sCD4/CCR-5 receptor binding assay. The note with it: membranes from CCR-5/L 1.2 cells, 3 nM sCD4, 0.1 nM 125I-gp120 (HIV-1 JR-FL); read-out: IC50 for inhibition of binding of sCD-4/GP-120 to CCR-5. Here is the method:
CCR-5 Receptor Binding Assay The compounds of the present invention were evaluated using the following CCR-5 receptor binding assay. The ^125I-gp120/sCD4/CCR-5 binding assay was carried out similarly as described in Wu et al., Nature, 1996;384:179-183. Briefly, the envelope gp120 protein derived from HIV-1 JR-FL (Trkola et al., Nature, 1996;384:184-186), an M-tropic strain, was iodinated using solid phase lactoperoxidase to a specific activity of 20 μCi/μg. For each binding reaction (in a final volume of 100 μL binding buffer [50 mM HEPES, pH 7.5, 1 mM CaCl2, 5 mM MgCl2, and 0.5% BSA]), 25 μL (2.5 μg) of membranes prepared from CCR-5/L 1.2 cells were mixed with 25 μL (3 nM) sCD4, followed by 25 μL (0.1 nM) radio-labeled gp120 in the presence or absence of 25 μL compound dissolved in DMSO (final concentration of DMSO 0.5%). The reactions were incubated at room temperature for 45 to 60 minutes and stopped by transferring the mixture to GFB filter plates, which were then washed 3 to 4 times with binding buffer containing 0.5 M NaCl. The plates were dried and MicroScint scintillation fluid was added before counting. […] The compounds of Examples 56 and 66 had IC50s of about […]. […] Preferred compounds can inhibit the binding of sCD-4/GP-120 to CCR-5 with IC50s of about 10 μM to about 100 μM or about 1 nM to about 10 μM
`Cc1[nH]c2ccc(OC(C)C(C)N3CCCC3)cc2c1C(=O)OCc1ccccc1` (stereo not shown) [Example 70, 2-Methyl-5-(1-methyl-2-pyrrolidin-1-yl-propoxy)-1H-indole-3-carboxylic acid benzyl ester]: the IC50 turned out to be 5.52 ± 1.1 µM.
The same measure, in the same setting: the value for `Cc1[nH]c2ccc(CCN3CCCC3)cc2c1C(=O)OCc1ccccc1.Cl` [Example 56, 2-Methyl-5-(2-pyrrolidin-1-yl-ethyl)-1H-indole-3-carboxylic acid benzyl ester hydrochloride] was approximately 4.8 µM; that for `Cc1[nH]c2ccc(CCN(C)C3CCOCC3)cc2c1C(=O)OCc1ccccc1` [Example 62, 2-Methyl-5-{2-[methyl-(tetrahydro-pyran-4-yl)-amino]-ethyl}-1H-indole-3-carboxylic acid benzyl ester] was 13.9 ± 1.6 µM; that for `Cc1[nH]c2ccc(OCCN3CCCC3)cc2c1C(=O)OCc1ccccc1` [Example 69, 2-Methyl-5-(pyrrolidin-1-yl-ethoxy)-1H-indole-3-carboxylic acid benzyl ester] was 20.3 ± 2.8 µM.
Same read-out and setting: with `Cc1[nH]c2ccc(OCCN(C)C)cc2c1C(=O)O[C@@H](C)c1ccccc1` [Example 66, 5-(2-Dimethylamino-ethoxy)-2-methyl-1H-indole-3-carboxylic acid (S)-1-phenyl-ethyl ester] the figure was approximately 4.8 µM; with `Cc1[nH]c2ccc(OCCN3CCC(c4ccccc4)C3)cc2c1C(=O)OCc1ccccc1.Cl` (stereo not shown) [Example 5, 1-[2-(3-benzyloxycarbonyl-2-methyl-1H-indol-5-yloxy)-ethyl]-3-phenyl-pyrrolidinium; Chloride], 18 µM.
Take `Cc1[nH]c2ccc(NCCN3CCCC3)cc2c1C(=O)OCc1ccccc1` [Example 20, 2-Methyl-5-(2-pyrrolidine-1-yl-ethylamino)-1H-indole-3-carboxylic acid benzyl ester]: the IC50 was found to be 17.5 µM.

Test system in a further series: not given
Assay: not given
Conditions: not given
As a reminder, the melting point is the temperature, or range, at which the solid turns liquid. For the compound `Cc1[nH]c2ccc(CN)cc2c1C(=O)OCc1ccccc1.Cl`, the melting point was in the range of 260 to 261 °C.
`Cc1[nH]c2ccc(OCCN3CCCCC3)cc2c1C(=O)OCc1ccccc1` [Example 12, 2-Methyl-5-(2-piperidin-1-yl-ethoxy)-1H-indole-3-carboxylic acid benzyl ester]: the melting point was in the range of 140 to 141 °C.
Still for that read-out and setting: with `Cc1[nH]c2ccc(OC(C)C(C)N3CCCC3)cc2c1C(=O)OCc1ccccc1` (stereo not shown) [Example 70, 2-Methyl-5-(1-methyl-2-pyrrolidin-1-yl-propoxy)-1H-indole-3-carboxylic acid benzyl ester] the figure was 94 to 98 °C; with `CNCCc1ccc2[nH]c(C)c(C(=O)OCc3ccccc3)c2c1` [Example 61, 2-Methyl-5-(2-methylamino-ethyl)-1H-indole-3-carboxylic acid benzyl ester], 65 to 68 °C.
For the compound `Cc1[nH]c2ccc(OCCN3CCCC3c3cccnc3)cc2c1C(=O)OCc1ccccc1` (stereo not shown) [Example 17, 2-Methyl-5-[2-(2-pyridin-3-yl-pyrrolidin-1-yl)-ethoxy]-1H-indole-3-carboxylic acid benzyl ester], the melting point was 126 to 127 °C.
On the same count and under the same terms, with `CCCN(CCC)CCOc1ccc2[nH]c(C)c(C(=O)OCc3ccccc3)c2c1` [Example 18, 5-(2-Dipropylamino-ethoxy)-2-methyl-1H-indole-3-carboxylic acid benzyl ester] the figure was 123 to 125 °C; with `Cc1[nH]c2ccc(OCCN3CCCC3c3ccccc3)cc2c1C(=O)OCc1ccccc1` (stereo not shown) [Example 15, 2-Methyl-5-[2-(2-phenyl-pyrrolidin-1-yl)-ethoxy]-1H -indole-3-carboxylic acid benzyl ester], 141 to 142 °C.
Same read-out and setting: the value for `Cc1[nH]c2ccc(CCN(C)C3CCCCC3)cc2c1C(=O)OCc1ccccc1` [Example 58, 5-[2-(Cyclohexyl-methyl-amino)-ethyl]-2-methyl-1H-indole-3-carboxylic acid benzyl ester] was 122 to 124 °C; that for `Cc1[nH]c2ccc(OCCN3CC(C)(C)C(C)(C)C3)cc2c1C(=O)OCc1ccccc1` [Example 14, 2-Methyl-5-[2-(3,3,4,4-tetramethyl-pyrrolidin-1-yl)-ethoxy]-1H-indole-3-carboxylic acid benzyl ester] was 181 to 182 °C.
The same measure, in the same setting: the value for `Cc1[nH]c2ccc(CCN3CCCC3)cc2c1C(=O)OCc1ccccc1.Cl` [Example 56, 2-Methyl-5-(2-pyrrolidin-1-yl-ethyl)-1H-indole-3-carboxylic acid benzyl ester hydrochloride] was 76 to 78 °C; that for `Cc1[nH]c2ccc(OCCN3CCN(C)CC3)cc2c1C(=O)OCc1ccccc1` [Example 3, 2-Methyl-5-[2-(4-methyl-piperazin-1-yl)-ethoxy]-1H-indole-3-carboxylic acid benzyl ester] was 143 to 145 °C.
In the case of `Cc1[nH]c2ccc(OCCN3CCNCC3)cc2c1C(=O)OCc1ccccc1` (as salt: hydrochloride) [Example 2, 1-[2-(3-benzyloxycarbonyl-2-methyl-1H-indole-5-yloxy)-ethyl]-piperazin-1-ium; Chloride], the melting point was 225 to 229 °C (dec.).
With `CCC(Oc1ccc2[nH]c(C)c(C(=O)OCc3ccccc3)c2c1)C(=O)N(CC)CC` (stereo not shown) [Example 9, 5-(1-Diethylcarbamoyl-propoxy)-2-methyl-1H-indole-3-carboxylic acid benzyl ester], the melting point fell in the range of 129 to 131 °C.
The same measure, in the same setting: with `Cc1[nH]c2ccc(OCCCCN3CCCC3)cc2c1C(=O)OCc1ccccc1` [Example 10, 2-Methyl-5-(4-pyrrolidin-1-yl-butoxy)-1H-indole-3-carboxylic acid benzyl ester] the figure was 152 to 155 °C; with `Cc1[nH]c2ccc(CCN(CC(C)C)CC(C)C)cc2c1C(=O)OCc1ccccc1` [Example 60, 5-(2-Diisobutylamino-ethyl)-2-methyl-1H-indole-3-carboxylic acid benzyl ester], 134 to 135 °C.
Still for that read-out and setting: with `Cc1[nH]c2ccc(CCN(C)C3CCOCC3)cc2c1C(=O)OCc1ccccc1` [Example 62, 2-Methyl-5-{2-[methyl-(tetrahydro-pyran-4-yl)-amino]-ethyl}-1H-indole-3-carboxylic acid benzyl ester] the figure was 109 to 111 °C.
On the same count and under the same terms, the value for `Cc1[nH]c2ccc(CCN3CCN(C)CC3)cc2c1C(=O)OCc1ccccc1` [Example 57, 2-Methyl-5-[2-(4-methyl-piperazin-1-yl)-ethyl]-1H-indole-3-carboxylic acid benzyl ester] was 167 to 168 °C; that for `Cc1[nH]c2ccc(OCCN3CCCC3)cc2c1C(=O)OCc1ccccc1` [Example 69, 2-Methyl-5-(pyrrolidin-1-yl-ethoxy)-1H-indole-3-carboxylic acid benzyl ester] was 110 to 116 °C; that for `Cc1[nH]c2ccc(OCCN3CCC(C)C3)cc2c1C(=O)OCc1ccccc1` (stereo not shown) [Example 4, 2-Methyl-5-[2-(3-methyl-pyrrolidin-1-yl)-ethoxy]-1H-indole-3-carboxylic acid benzyl ester] was 121 to 122 °C.
With `CCN(CC)CCc1ccc2[nH]c(C)c(C(=O)O[C@@H](C)c3ccccc3)c2c1.Cl`, the melting point fell in the range of 95 to 97 °C.
The same measure, in the same setting: with `Cc1[nH]c2ccc(OCCN3CCCCCC3)cc2c1C(=O)OCc1ccccc1` [Example 11, 5-(2-Azepan-1-yl-ethoxy)-2-methyl-1H-indole-3-carboxylic acid benzyl ester] the figure was 141 to 142 °C.
In turn, `CCN(CC)CCOc1ccc2[nH]c(C)c(C(=O)OCc3ccccc3)c2c1` [Example 13, 5-(2-Diethylamino-ethoxy)-2-methyl-1H-indole-3-carboxylic acid benzyl ester] showed a melting point of 125 to 126 °C.
On the same count and under the same terms, with `CCN(CC)Cc1ccc2[nH]c(C)c(C(=O)OCc3ccccc3)c2c1` [Example 64, 5-Diethylaminomethyl-2-methyl-1H-indole-3-carboxylic acid benzyl ester] the figure was 106 to 108 °C.
`Cc1[nH]c2ccc(OCCN(C)C)cc2c1C(=O)O[C@@H](C)c1ccccc1` [Example 66, 5-(2-Dimethylamino-ethoxy)-2-methyl-1H-indole-3-carboxylic acid (S)-1-phenyl-ethyl ester] gave a melting point of 135 to 140 °C.
The compound `Cc1[nH]c2ccc(OCCN3CCC(c4ccccc4)C3)cc2c1C(=O)OCc1ccccc1.Cl` (stereo not shown) [Example 5, 1-[2-(3-benzyloxycarbonyl-2-methyl-1H-indol-5-yloxy)-ethyl]-3-phenyl-pyrrolidinium; Chloride] registered a melting point of 118 to 121 °C.
Same read-out and setting: the value for `Cc1[nH]c2ccc(OCCN(C(C)C)C(C)C)cc2c1C(=O)OCc1ccccc1` [Example 6, 5-(2-Diisopropylamino-ethoxy)-2-methyl-1H-indole-3-carboxylic acid benzyl ester] was 121 to 123 °C; that for `Cc1[nH]c2ccc(OCCN3CC[C@H](CO)C3)cc2c1C(=O)OCc1ccccc1` [Example 16, 5-[2-((S)-3-Hydroxymethyl-pyrrolidin-1-yl)-ethoxy]-2-methyl-1H -indole-3-carboxylic acid benzyl ester] was 126 to 127 °C; that for `Cc1[nH]c2ccc(CCN3CCCCC3)cc2c1C(=O)OCc1ccccc1` [Example 59, 2-Methyl-5-(2-piperidin-1-yl-ethyl)-1H-indole-3-carboxylic acid benzyl ester] was 159 to 161 °C.
As for `CCN(CC)CCOc1ccc2c(c1)c(C(=O)OCc1ccccc1)c(C)n2C` [Example 8, 1-Methyl-5-(2-diethylamino-ethoxy)-2-methyl-1H-indole-3-carboxylic acid benzyl ester], the melting point was 73 to 74 °C.
Same read-out and setting: the value for `Cc1[nH]c2ccc(OCCN3CCCC3)cc2c1C(=O)OC(C)c1ccccc1.Cl` (stereo not shown) was 75 to 80 °C.
Same read-out and setting: the value for `Cc1[nH]c2ccc(OCCN3CCOCC3)cc2c1C(=O)OC(C)c1ccccc1.Cl` (stereo not shown) was 45 to 55 °C.
Still for that read-out and setting: the value for `Cc1[nH]c2ccc(OCCN3CCN(C(=O)OC(C)(C)C)CC3)cc2c1C(=O)OCc1ccccc1` [Example 1, 5-[2-(4-tert-Butoxycarbonyl-piperazin-1-yl)-ethoxy]-2-methyl-1H-indole-3-carboxylic acid benzyl ester] was 136 to 137 °C; that for `Cc1[nH]c2ccc(CCNC3CCCCC3)cc2c1C(=O)OCc1ccccc1` [Example 71, 5-(2-Cyclohexylamino-ethyl)-2-methyl-1H-indole-3-carboxylic acid benzyl ester] was 97 to 100 °C.
